Data from patent US7915012B2, “Methods for screening for inhibitors of TRPV2 activation” (Korea University Industry and Academic Collaboration …, priority 2008, dated 2011).
“Also recorded” adds a separate entry of the source.

Tests used:
mTRPM8 = target: T1, mTRPM8 (Mus musculus, UniProt Q8R4D5); experiment: Fluo-3 calcium imaging in TRPM8 transfected HEK293T cell line; assay type: cell-based; conditions: 100 μM probenecid
T1 construct: expressed in transfected cells; host or cells: HEK293T (ATCC CRL-11268)
T1 sequence (Q8R4D5 whole entry): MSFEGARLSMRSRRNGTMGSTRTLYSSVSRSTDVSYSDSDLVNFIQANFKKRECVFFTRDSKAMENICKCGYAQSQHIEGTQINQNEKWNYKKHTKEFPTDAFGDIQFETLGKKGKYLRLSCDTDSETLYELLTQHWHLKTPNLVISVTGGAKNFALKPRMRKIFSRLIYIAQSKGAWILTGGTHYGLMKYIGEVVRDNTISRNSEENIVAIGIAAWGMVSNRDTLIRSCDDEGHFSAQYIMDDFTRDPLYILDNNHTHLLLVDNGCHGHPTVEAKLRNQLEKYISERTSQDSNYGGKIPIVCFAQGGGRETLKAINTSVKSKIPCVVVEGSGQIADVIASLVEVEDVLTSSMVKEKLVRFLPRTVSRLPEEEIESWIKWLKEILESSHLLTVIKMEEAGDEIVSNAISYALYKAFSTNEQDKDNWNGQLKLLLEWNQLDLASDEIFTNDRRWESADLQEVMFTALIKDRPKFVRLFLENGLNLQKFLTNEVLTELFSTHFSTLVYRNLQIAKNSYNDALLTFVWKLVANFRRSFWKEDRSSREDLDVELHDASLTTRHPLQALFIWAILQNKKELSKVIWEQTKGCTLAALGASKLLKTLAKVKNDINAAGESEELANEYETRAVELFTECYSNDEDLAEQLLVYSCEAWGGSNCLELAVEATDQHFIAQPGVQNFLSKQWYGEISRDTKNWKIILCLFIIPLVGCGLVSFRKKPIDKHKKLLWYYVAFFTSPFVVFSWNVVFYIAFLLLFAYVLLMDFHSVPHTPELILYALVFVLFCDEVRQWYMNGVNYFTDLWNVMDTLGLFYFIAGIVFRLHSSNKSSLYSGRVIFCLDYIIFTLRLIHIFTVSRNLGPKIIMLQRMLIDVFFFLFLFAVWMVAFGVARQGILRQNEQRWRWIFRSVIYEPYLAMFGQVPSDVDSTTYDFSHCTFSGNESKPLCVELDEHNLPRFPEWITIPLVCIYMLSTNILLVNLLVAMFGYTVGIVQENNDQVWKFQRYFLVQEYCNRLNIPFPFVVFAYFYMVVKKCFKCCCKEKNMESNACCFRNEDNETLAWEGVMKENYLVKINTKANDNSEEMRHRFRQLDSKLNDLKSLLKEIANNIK
Protocol: (§1) HEK293T cell line (ATCC CRL-1 1268) was transiently transfected with plasmid DNA containing polynucleotide encoding […] (SEQ. ID. NO: 1), rTRPV2 (SEQ. ID. NO: 2), mTRPV3 (SEQ. ID. NO: 3), rTRPV4 (SEQ. ID. NO: 4), mTRPM8 (SEQ. ID. NO: 5) or mTRPA1 (SEQ. ID. NO: 6).
(§2) Particularly, the HEK293T cell line was transiently transfected with individual TRP channel plasmid (pcDNA3.1 containing polynucleotide encoding rTRPV1, rTRPV2, mTRPV3, rTRPV4, mTRPM8 or mTRPA1), and 600 ng/well of pCDNA3 (Invitrogen Corp., USA; containing green fluorescent protein (GFP) cDNA) using Fugene6 (Roche Diagnostics, USA) according to manufacturer's instruction. The transformed cells were cultured in DMEM/F12 containing 10% FBS and 1% penicillin/streptomycin in a CO2 incubator for 24 hours. The cells were replated onto poly-L-lysine-coated glass coverslips, followed by further culture for 10-24 hours.
(§3) Particularly, the transfected cell line of Example <3-1> and Example <3-2> was loaded with Fluo-3AM (5 μM; Sigma Aldrich, USA) in the bath solution (140 mM NaCl, 5 mM KCl, 2 mM CaCl2, 1 mM MgCl2, 10 mM HEPES; adjusted to pH 7.4 with NaOH) containing 0.02% pluronic acid (Invitrogen, USA) at 37° C. for 1 hour. […]

trigeminal neurons [1] = experiment: Whole-cell voltage-clamp recording in trigeminal neurons; assay type: cell-based, ICR mice; conditions: 100 μM probenecid
[2] = Hindpaw licking/flicking behaviors; assay type: in vivo, mice; conditions: 10 minutes
Protocol: Inflammatory sensitization by probenecid was investigated. Particularly, 50 μl of 1% carrageenan (Sigma Aldrich, USA) was injected to the right hind paws of mice 3 hours before the probenecid injection or 50 μl of CFA (complete Freund's adjuvant; Sigma Aldrich, USA) was injected 24 hours before the probenecid injection. Before the experiment, the mice were adapted for one hour to the experimental environment. […] of vehicle (saline containing 3% DMSO and 0.5% Tween 80) alone or […] of vehicle containing probenecid (20 mM) was injected to the right hind paws of the mice.
The time spent for the hindpaw licking/flicking behaviors in mice were measured according to the method of Bandell M, et al. (Neuron 41:849-857, 2004) and Moqrich A, et al. (Science 307:1468-1472, 2005), for 10 minutes. Statistical data were analyzed by two-tailed, unpaired Student's-t-test and the results were presented by mean ±S.E.M. (***p<0.001, **p<0.01, *p<0.05 and ND, p>0.05).

trigeminal neurons [3] = experiment: Calcium imaging of cultured trigeminal neurons; assay type: cell-based, ICR mice; conditions: 100 μM probenecid
Protocol: Trigeminal ganglia were dissected out of decapitated adult ICR mice in cold PBS and treated with 1.5 mg/ml of collagenase/dispase (Roche Diagnostics, USA) at 37° for 45 min, and then treated with 0.25% trypsin (Invitrogen, USA) for 15 min. The trigeminal neurons prepared thereby were then plated onto poly-L-lysinecoated coverslips in DMEM/F12 containing 10% FBS, 1% penicillin/streptomycin and 5 ng/ml of 2.5S NGF (Invitrogen, USA), followed by culture in a CO2 incubator for 48-72 hours.
Calcium imaging was performed with a confocal microscope (LSM5 Pascal, Carl Zeiss, Germany), and time-lapse images (excitation 488 nm/emission 514 nm) were collected every 3 seconds using Carl Zeiss ratio tool software (Carl Zeiss, Germany).
The trigeminal neurons prepared by the same manner as described in Example 2 were delayed-treated with 100 μM probenecid or 4 kinds of TRP activators: TRPM8 activator menthol 400 μM, TRPA1 activator cinnamaldehyde (MP Biomedicals, USA) 300 μM, TRPV1 activator capsaicin (Sigma-Aldrich, USA) 2 μM and TRPV1-3 activator 2-APB 300 μM.
The trigeminal neurons prepared by the same manner as described in Example 2 were treated with 300 μM 2-APB+100 μM probenecid, 300 μM 2-APB+2 μM capsaicin, 300 μM 2-APB+300 μM cinnamaldehyde+2 μM capsaicin, 300 μM 2-APB +2 μM capsaicin +100 μM probenecid, 300 μM 2-APB +400 μM menthol and 300 μM 2-APB, respectively.

rTRPV4 = target: T2, rTRPV4 (Rattus norvegicus, UniProt Q9ERZ8); experiment: Fluo-3 calcium imaging in TRPV4 transfected HEK293T cell line; assay type: cell-based; conditions: 100 μM probenecid
T2 construct: expressed in transfected cells; host or cells: HEK293T (ATCC CRL-11268)
T2 sequence (Q9ERZ8 whole entry): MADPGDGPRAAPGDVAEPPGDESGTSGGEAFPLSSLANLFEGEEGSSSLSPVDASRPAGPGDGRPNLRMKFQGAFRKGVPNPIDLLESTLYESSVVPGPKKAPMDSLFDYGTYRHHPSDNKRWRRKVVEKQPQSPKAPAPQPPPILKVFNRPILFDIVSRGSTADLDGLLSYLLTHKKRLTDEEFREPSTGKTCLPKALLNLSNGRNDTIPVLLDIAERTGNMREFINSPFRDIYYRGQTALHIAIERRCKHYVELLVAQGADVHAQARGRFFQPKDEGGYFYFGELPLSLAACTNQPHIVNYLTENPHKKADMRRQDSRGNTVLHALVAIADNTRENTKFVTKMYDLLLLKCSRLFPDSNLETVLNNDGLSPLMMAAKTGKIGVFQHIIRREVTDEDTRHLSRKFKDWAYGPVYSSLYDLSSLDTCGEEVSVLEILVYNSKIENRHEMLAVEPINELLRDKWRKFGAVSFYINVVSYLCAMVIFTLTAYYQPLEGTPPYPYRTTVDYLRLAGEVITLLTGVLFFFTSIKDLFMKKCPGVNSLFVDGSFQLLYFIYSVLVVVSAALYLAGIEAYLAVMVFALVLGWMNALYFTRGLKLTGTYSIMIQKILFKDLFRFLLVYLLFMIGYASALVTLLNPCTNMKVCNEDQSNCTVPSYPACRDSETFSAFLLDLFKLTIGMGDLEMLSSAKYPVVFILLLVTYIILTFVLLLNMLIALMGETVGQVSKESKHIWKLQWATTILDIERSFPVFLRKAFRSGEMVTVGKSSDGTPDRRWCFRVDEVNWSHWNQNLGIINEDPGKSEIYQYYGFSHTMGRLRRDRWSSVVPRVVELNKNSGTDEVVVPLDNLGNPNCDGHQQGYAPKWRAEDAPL
Protocol: as §1, §2, §3

mTRPA1 = target: T3, mTRPA1 (Mus musculus, UniProt Q8BLA8); experiment: Fluo-3 calcium imaging in TRPA1 transfected HEK293T cell line; assay type: cell-based; conditions: 100 μM probenecid
T3 construct: expressed in transfected cells; host or cells: HEK293T (ATCC CRL-11268)
T3 sequence (Q8BLA8 whole entry): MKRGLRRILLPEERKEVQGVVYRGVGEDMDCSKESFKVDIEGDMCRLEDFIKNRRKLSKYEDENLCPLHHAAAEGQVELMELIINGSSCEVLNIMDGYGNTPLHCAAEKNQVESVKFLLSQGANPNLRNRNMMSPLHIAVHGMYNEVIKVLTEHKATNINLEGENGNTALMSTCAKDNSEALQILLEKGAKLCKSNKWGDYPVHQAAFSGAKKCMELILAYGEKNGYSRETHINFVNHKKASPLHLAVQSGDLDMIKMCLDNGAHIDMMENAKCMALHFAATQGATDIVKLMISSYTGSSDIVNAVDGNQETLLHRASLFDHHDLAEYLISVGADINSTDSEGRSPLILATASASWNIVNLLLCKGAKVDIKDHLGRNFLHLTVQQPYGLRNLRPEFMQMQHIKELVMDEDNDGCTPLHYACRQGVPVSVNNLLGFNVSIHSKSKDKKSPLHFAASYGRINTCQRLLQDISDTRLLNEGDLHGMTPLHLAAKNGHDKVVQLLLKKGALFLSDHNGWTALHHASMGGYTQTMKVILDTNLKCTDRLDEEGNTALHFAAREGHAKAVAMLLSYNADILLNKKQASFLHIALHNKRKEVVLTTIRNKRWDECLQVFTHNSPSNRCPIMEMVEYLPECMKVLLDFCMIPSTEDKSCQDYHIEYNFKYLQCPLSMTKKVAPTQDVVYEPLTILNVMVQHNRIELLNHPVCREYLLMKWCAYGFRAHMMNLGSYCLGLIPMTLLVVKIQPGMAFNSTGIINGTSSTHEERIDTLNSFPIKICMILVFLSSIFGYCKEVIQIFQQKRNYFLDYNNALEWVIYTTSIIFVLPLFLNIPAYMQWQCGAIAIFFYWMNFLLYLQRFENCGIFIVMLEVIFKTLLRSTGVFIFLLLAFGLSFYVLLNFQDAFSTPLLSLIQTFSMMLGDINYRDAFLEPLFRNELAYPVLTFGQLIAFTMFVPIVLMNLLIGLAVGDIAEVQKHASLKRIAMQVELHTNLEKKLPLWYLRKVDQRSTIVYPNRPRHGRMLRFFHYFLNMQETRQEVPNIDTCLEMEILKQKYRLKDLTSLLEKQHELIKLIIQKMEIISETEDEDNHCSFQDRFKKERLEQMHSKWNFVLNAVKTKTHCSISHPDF
Protocol: as §1, §2, §3

In the case of `CCCN(CCC)S(=O)(=O)c1ccc(C(=O)O)cc1` [probenecid], the “TRPM8 activation (calcium imaging)” value (mTRPM8) was “only TRPV2 was activated; also recorded: not confirmed”, the “probenecid induced currents in 2-APB-sensitive trigeminal neurons” value (trigeminal neurons [1]) was “exhibited outward rectifying” and the “hindpaw licking/flicking behavior in normal mice” value ([2]; 20 mM probenecid injected to the right hind paw) was “no significant changes in behavior”. For the same molecule, the “hindpaw licking/flicking behavior in mice with inflammation induced by carrageenan” value ([2]; 1% carrageenan 3 hours before, 20 mM probenecid to the right hind paw) was “significantly extended behavior time; also recorded: behavial changes were observed”, the “hindpaw licking/flicking behavior in mice with inflammation induced by CFA” value ([2]; CFA 24 hours before, 20 mM probenecid to the right hind paw) was “significantly extended behavior time; also recorded: behavial changes were observed” and the “calcium influx in a trigeminal neuron group” value (trigeminal neurons [3]) was “calcium influx induced”. For the same molecule, the “neurons sensitive to probenecid among neurons responding to capsaicin” value (trigeminal neurons [3]; 2 μM capsaicin) was 5 out of 111, the “share of capsaicin-sensitive neurons that responded to probenecid” value (trigeminal neurons [3]; 2 μM capsaicin) was 3.5% and the “response of 2-APB reactive neurons to probenecid” value (trigeminal neurons [3]; 2-APB 300 μM) was “responded”. The “response of major capsaicin-sensitive and all capsaicin/cinnamaldehyde-sensitive neuron groups to probenecid” value (trigeminal neurons [3]; capsaicin 2 μM, cinnamaldehyde 300 μM) was “did not exhibit probenecid induced intracellular calcium influx”, the “response of menthol-reactive TRPM8 positive neurons to probenecid” value (trigeminal neurons [3]; menthol 400 μM) was “did not respond” and the “TRPV4 activation (calcium imaging)” value (rTRPV4) was “only TRPV2 was activated; also recorded: not confirmed”. The “TRPA1 activation (calcium imaging)” value (mTRPA1) was “only TRPV2 was activated; also recorded: not confirmed”.
